The results in this text go back to PubChem BioAssay (NCI).

Assay in all cases: NCI-60 cell line screen, 48 h
The subject of test [1] is MDA-MB-435.
The subject of test [2] is MCF7 breast.
For test [3], the system named is UO-31 renal.
For test [4], the system named is MOLT-4 leukemia.
In test [5] the test system is MDA-MB-231 breast.
The subject of test [6] is 786-0 renal.
Test [7] relates to OVCAR-3 ovarian.
In test [8] the test system is HCT-15 colon.
Test [9] deals with SR leukemia.
Test [10] has as its system A498 renal.

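In this assay, cells in 96-well plates receive the compound at five concentrations for 48 hours. Endpoints are linearly interpolated between the surrounding concentrations. Abbreviation: GI50, concentration required for 50% inhibition of growth. TGI denotes the concentration required for complete inhibition of growth.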

Regarding `NC(C(F)(F)F)(C(F)(F)F)P(=O)(Cc1ccccc1)Cc1ccccc1`, the TGI in [1], in test [2], in test [3], in test [4], in [5] and in test [6] was greater than 100 µM in each case. The TGI in test [7], in [8] and in [9] was greater than 100 µM throughout.
On to `CN1C(=O)C2C(=O)N(Cc3ccccc3)CC(=O)N2c2cccnc21` (centres undefined), for which the TGI in test [1], in test [2], in [3], in test [4], in test [10] and in [5] was greater than 100 µM throughout. In addition, the TGI in [6], in [7], in test [8] and in test [9] was greater than 100 µM each time.
As to `C=C1CC(COc2cc(=O)oc3ccccc23)(c2ccccc2)OC1=O` (centres undefined), the TGI in test [1] was 11 µM; in test [2], 2.14 µM; in test [3], 16 µM; in [4] it was greater than 20.8 µM; in test [10], 7.47 µM; in [5], 11.9 µM. Moreover, the TGI was 2.96 µM in test [6], 1.87 µM in test [7], 3.78 µM in test [8] and greater than 28 µM in test [9].
`C[N+]1=C2[B-](C(C)(C)C)=[N+](C(C)(C)C)[B-]2(C(C)(C)C)[N+](C)=C2[B-](C(C)(C)C)=[N+](C(C)(C)C)[B-]21C(C)(C)C` (centres undefined): the TGI in test [1], in [2], in test [3], in [4], in [10] and in [5] was greater than 100 µM throughout. In addition, the TGI in test [6], in test [7], in test [8] and in test [9] was greater than 100 µM each time.
As to `Cc1cc(N(CCC#N)CCC#N)ccc1/C=N/NC(=O)c1cc(Cl)ccc1O`, the TGI in test [1], in test [2], in test [4], in test [10], in test [5] and in test [6] was greater than 100 µM throughout. In addition, the TGI in [7], in test [8] and in [9] was greater than 100 µM each time.
For the compound `Brc1ccc(CCNCCN2CCCCC2)cc1`, the TGI in test [1] was 18.2 µM; in test [2], 29.5 µM; in test [3], 24.6 µM; in [4], greater than 100 µM; in test [10] it was 32 µM; in [5], 21.4 µM. Besides, the TGI in test [6] is 27.5 µM; in [7], 29.7 µM; in [8], 33.6 µM; in test [9] it was greater than 100 µM.
On to `OC1C2[C@@H](O)CCCN2C[C@@H](O)[C@H]1O` (some centres undefined), for which the TGI in test [1], in test [2], in test [3], in [4], in [10] and in test [5] was greater than 100 µM in each case. Further, the TGI in [6], in [7], in test [8] and in test [9] was greater than 100 µM each time.
As for `COCOC1/C=C/CCCC#C[C@H](C)C(=O)CC1` (some centres undefined), the TGI was 19.5 µM in [1]; 23.1 µM in test [2]; 28 µM in test [3]; greater than 29.4 µM in test [4]; 25.4 µM in test [10]; 17 µM in test [5]. For the same compound, the TGI was 13.5 µM in test [6], 15.2 µM in test [7], 24 µM in [8] and greater than 33.2 µM in test [9].
With `CN(C)/N=N/c1nc2c(c(=O)n(C)c(=O)n2C)n1C`, the TGI in [1], in [2], in [3], in test [4], in test [10] and in [5] was greater than 100 µM each time. Besides, the TGI in [6], in test [7], in test [8] and in test [9] was greater than 100 µM in each case.
Consider `COc1ccc2[nH]c(O)c(/C=c3/cc4c(c(-c5cc(OC)c(OC)c(OC)c5)n3)=Nc3ccccc3-4)c2c1`, for which the GI50 in test [1] is 3.48 µM; in test [2], 2.11 µM; in test [3], 6.62 µM; in [4] it was 1.94 µM; in test [10], 1.7 µM; in test [5] it was 0.982 µM. Also, the GI50 in test [7] is 8.48 µM; in test [8], 5.3 µM; in test [9], 1.59 µM. The TGI in [1] is greater than 100 µM; in test [2] it was greater than 100 µM; in test [3], greater than 100 µM; in [4], 10.7 µM; in test [10], 8.72 µM; in test [5], 36.6 µM. Moreover, the TGI in [7] is greater than 100 µM; in [8], greater than 100 µM; in test [9], 8.79 µM.
Turning to `CC[C@]1(Cc2ccc(OC)c(OC)c2)CN(S(=O)(=O)c2ccc(C)cc2)C[C@@H]1OC(C)=O`, the TGI in [1], in test [2], in [3], in test [4], in test [10] and in test [5] was greater than 100 µM in each case. Further, the TGI in test [6], in test [7], in [8] and in test [9] was greater than 100 µM throughout.
As to `CCN(CC)CCc1c2c(nc3ccccc13)C(=O)c1cccnc1C2=O`, the TGI was found to be 4.99 µM in test [1]; 1.51 µM in [2]; 5.29 µM in test [10]; 6.72 µM in test [5]; 9.56 µM in [6]; 5.8 µM in [7]. For the same compound, the results for the TGI in [8] and in test [9] were 1.29 µM and 0.993 µM, respectively.
